The target in series [1] is T1, STING (Homo sapiens, UniProt Q86WV6). Put plainly: Western Blot analysis for STING degradation in H596, H1650 and HaCat cells. The note with it: 0.22 µM, 0.67 µM, 2 µM and 6 µM, 24h, Figure 4. The format is cell-based. The procedure:
To assess STING degradation in H596 cells (ATCC, HTB-178) cells were seeded at a density of 100.000 cells/well in 24-well Nunclon Delta surface treated culture plate in RPMI-1640 growth medium (supplemented with 10% FBS, 1% Pen-strep). Cells were incubated over-night at 37°C 5% CO2 to allow adhesion. Next day growth medium was renewed and a 5x concentration of test compounds (2.5% DMSO) diluted in growth medium were added to the appropriate well. Final DMSO concentration was 0.5%. Cell culture plates were returned to the incubator for additional 24h. The same protocols were used to grow H1650 and HaCat cells except that cells were seeded at a density of 150,000 cells/well and 250,000 cells/well, respectively
Final test compound concentrations were 0.22 µM, 0.67 µM, 2 µM and 6 µM.
For cell lysis, western blotting and data analysis, the following methods were applied.
For cell lysing for Western Blot analysis cell culture plates were brought to ice, supernatant was removed by aspiration and cells washed 2x in ice-cold DPBS. […] Samples were either analysed directly or stored at -80°C until analysis.
For Western Blotting, total protein concentration in each lysate was determined using PIERCE Gold BCA Assay kit according to manufactures protocol. […]
A general note: A western blot detects proteins with antibodies after separation by electrophoresis.

The target of series [2] is T2, constitutively active STING (comprising a N154S mutation) (Homo sapiens, UniProt Q86WV6, N154S).
T2 construct: primary fibroblast cells with constitutively active STING (comprising a N154S mutation), derived from SAVI patients; endogenous in cells; host or cells: SAVI patient primary fibroblasts
Put plainly: Western Blot analysis for STING degradation in SAVI patient primary fibroblast cells. The note with it: SAVI patient fibroblasts (N154S); 1 µM; 20 hours; Figure 7. The class given is cell-based. How it is done:
(§1) For this study, STING degradation was assessed in primary fibroblast cells with constitutively active STING (comprising a N154S mutation), derived from SAVI patients, and compared to healthy donor primary fibroblast cells.
(§2) Cells were seeded at 50,000 cells/well and cultured under standard conditions for 24 hours. Media was replaced with test compound and incubated for 20 hours prior to analysis.
(§3) Cell culture medium was replaced with fresh medium containing 1 µM Example compound and incubated for 20 hours. For cell lysis and western blotting, the methods described above for HFF-1 cells were applied.

Another series deals with T3, wild-type STING (Homo sapiens, UniProt Q86WV6).
T3 construct: compared to healthy donor primary fibroblast cells; endogenous in cells; host or cells: healthy donor primary fibroblasts
Kind of series: Western Blot analysis for STING degradation in healthy donor primary fibroblast cells. The note with it: healthy donor fibroblasts; 1 µM; 20 hours; Figure 7. The class given is cell-based. How it is done: as §1, §2, §3

Series [3] is described as follows: Pharmacokinetic profiling in mouse. Conditions: plasma, sc, mice, subcutaneous injection (8 mg/kg stated for Example compound 12), 8 hours after injection. The format is in vivo. The procedure: Mice were administered with 8 mg/kg Example compound 12 by subcutaneous injection. Plasma concentration of test compound was measured over the course of 8 hours.
Series [4] deals with T1, STING. Kind of series: Western Blot analysis for STING recovery following compound washout in HFF-1 cells. The arrangement: To assess STING degradation and recovery in human foreskin fibroblasts HFF-1 cells; host or cells: HFF-1 human foreskin fibroblasts. Conditions: 24 hours treatment, 48 hours after washout, Figure 6. The format is cell-based. How it is done: To assess STING degradation and recovery in human foreskin fibroblasts HFF-1 cells (ATCC, SCRC-1041) cells were seeded at a density of 60.000 cells/well in 24-well Nunclon Delta surface treated culture plate in DMEM growth medium (supplemented with 10% FBS, 1% Pen-strep). Cells were incubated over-night at 37°C 5% CO2 to allow adhesion. Next day growth medium was renewed and a 5x concentration of test compounds (2.5% DMSO) diluted in growth medium were added to the appropriate well. The final DMSO concentration were 0.5%. Cell culture plates were returned to the incubator for additional 24h.
Methods as described above for H596, H1650 and HaCat cells were applied for cell lysis and western blotting. Following 24 hours incubation with the test compounds, cell culture medium containing Example compound was removed, cells washed with fresh medium without Example compound, and incubated in fresh medium without Example compound for the indicated time.

The subject of series [5] is CXCL10, IL-6, MCP-1 (CCL2), MIP-1α (CCL3) and IFN-γ. Put plainly: Serum cytokine and chemokine levels in mice, with or without LPS (V-Plex immunoassay). The format is in vivo. The note with it: compound followed by LPS 16 hours later. How it is done: A compound of the invention (Example compound 12; "Ex 12"), or a control S1-L-E compound (control Example compound 7; "Ex 7"), were administered to subjects following the in vivo protocol of Example 1. 16 hours after that administration, some subjects were administered lipopolysaccharide (LPS).
In subjects that received LPS alone, serum levels of CXCL10, IL-6, MCP-1 (CCL2) and MIP-1α (CCL3) were raised 100-1000 fold above the levels in control subjects that received vehicle alone. (In both cases, IFN-γ levels were below the 10 pg/mL threshold of detection.) In subjects that received the compound of the invention, followed by LPS 16 hours later, CXCL10, IL-6, MCP-1 (CCL2) and MIP-1α (CCL3) levels were a further ten-fold higher than the levels in subjects that received LPS alone (see Figure 2). […] IFN-γ levels were only detectable in subjects that had been administered the compound of the invention, with LPS treatment after 16 hours resulting in a further elevation in IFN-γ levels to a small extent. Quantification of cytokines and chemokines was performed on individual serum samples that were stored frozen (≤ -20 °C) after collection, using the electrochemiluminescence-based immunoassay and a custom mouse 5-plex panel according to the manufacturer's instructions (V-Plex assay, Mesoscale Discovery, USA).

“Also recorded” adds a separate entry of the source.

T1 sequence (Q86WV6 whole entry): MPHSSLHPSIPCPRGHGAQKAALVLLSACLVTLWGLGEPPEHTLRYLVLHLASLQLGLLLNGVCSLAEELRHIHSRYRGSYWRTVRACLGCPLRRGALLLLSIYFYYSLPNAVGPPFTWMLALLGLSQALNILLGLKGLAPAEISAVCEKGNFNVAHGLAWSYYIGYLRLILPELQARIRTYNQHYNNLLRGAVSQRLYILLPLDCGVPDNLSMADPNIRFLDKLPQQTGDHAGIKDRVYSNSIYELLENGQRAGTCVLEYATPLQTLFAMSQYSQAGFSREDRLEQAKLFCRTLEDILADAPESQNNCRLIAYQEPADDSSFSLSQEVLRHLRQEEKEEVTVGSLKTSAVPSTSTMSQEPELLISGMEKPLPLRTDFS
T3 sequence (Q86WV6 whole entry): as above
T2 sequence (Q86WV6 whole entry N154S): as the sequence (Q86WV6 whole entry) above, with N154S counted along it

As for `CCn1nc(C)cc1C(=O)N=c1n(C)c2cc(C(N)=O)ccc2n1CCC(CCn1c(=NC(=O)c2cc(C)nn2CC)n(C)c2cc(C(N)=O)ccc21)OCC(=O)NCCOCCOCCOCCOCCC(=O)NCCOCCOCCOCCOCC(=O)N[C@H](C(=O)N1C[C@H](O)C[C@H]1C(=O)NCc1ccc(-c2scnc2C)cc1)C(C)(C)C` (stereo partly shown) [Example compound 6], at STING [1], the STING degradation entry was “induction of STING degradation; also recorded: induces visible degradation in H1650 and H596 at higher concentrations”.

On to `CCn1nc(C)cc1C(=O)N=c1n(C)c2cc(C(N)=O)ccc2n1CCC(CCn1c(=NC(=O)c2cc(C)nn2CC)n(C)c2cc(C(N)=O)ccc21)OCC(=O)NCCOCCOCCOCCOCCC(=O)NCCOCCOCCOCCOCCNc1cccc2c1C(=O)N(C1CCC(=O)NC1=O)C2=O` (stereo not shown) [Example compound 7], for which the STING degradation result in series [2] is listed as “induce STING degradation”; at wild-type STING, “induce STING degradation”; at STING [1], “induction of STING degradation; also recorded: induce STING degradation in all cell lines tested at all concentrations tested”. For the same molecule, the concentration at 8 h in series [3] is ~0.1 µM. In addition, the “STING protein recovery after washout” value at STING [4] is given as “fail to recover to pre-treatment levels”. In addition, the “CXCL10, IL-6, MCP-1 (CCL2) and MIP-1α (CCL3) levels relative to subjects that received LPS alone” value in series [5] is “only further elevated to a small extent”.

These data come from EP4663204A1, “COMPOUNDS USEFUL FOR THE MODULATION OF THE ACTIVITY OF STING” (Sulis Therapeutics ApS, priority 2024, dated 2025).
